Test results taken from patent publication US11315778B2, “Spray chambers and methods of using them” (PERKINELMER HEALTH SCIENCES CANADA, INC., priority 2016, dated 2022).

Tests used:
Type in all cases: cell-based
[1] = test system: ovarian cancer cell line (CP70); experiment: Single cell ICP-MS of cisplatin-exposed CP70 cells (195Pt monitored); settings: over the course of eight hours, FIG. 21
Description: A cell suspension can be nebulized by introducing the cell suspension through a nebulizer fluidically coupled to a spray chamber as described herein. The spray chamber can select individual cells and provide them to an inductively coupled plasma. As each cell enters the plasma, it is ionized, and the resulting ion burst from the intrinsic metal species is detected by a mass spectrometer. Each cell is treated the same as an individual particle. Cell concentrations can desirably be around 100,000 cell/mL to minimize coincidence—a situation where to cells are provided at the same time to the plasma.
To determine the effectiveness of detection of cisplatin using single cell ICP-MS using the spray chambers described herein, an ovarian cancer cell line (CP70) was exposed to cisplatin and monitored over time. Analyses were carried out on a PerkinElmer NexION 350 D ICP-MS with a 2 mm quartz injector and quartz torch operating with an RF power of 1600 W. A spray chamber as shown in FIG. 2 (though the spray chambers of FIGS. 3, 4 and 5A-5D could be used instead) can be used with a high efficiency concentric glass nebulizer (Meinhard) was used with the spray chamber and the NexION 350 D instrument.
Because background levels of Pt are non-existent and there are no common interferences on 195Pt, each spike represents Pt detected in an individual cell. […]

[2] = test system: A2780/CP70 ovarian cancer cell line; experiment: Cisplatin uptake time course, single cell ICP-MS
Description: (§1) Cisplatin uptake in two ovarian cancer cell lines was evaluated using single particle ICP-MS (SP-ICP-MS). The ovarian cancer cell lines A2780 and A2780/CP70 were used in all experiments. Cells were grown in RPMI […] media (Gibco™) supplemented with 10% fetal bovine serum (FBS, Gibco™), insulin (Sigma-Aldrich™), 1-glutamine (Gibco™), and pen/strep (Gibco™) under 5% CO2 at 37° C. For serum starvation experiments, cells were plated and allowed to attach to the dishes. The media was removed and replaced with serum-free media for approximately 18 hours after which the media was replaced with regular media to begin cisplatin treatment. Cisplatin was re-suspended at 1 mg/mL in sterile saline and vigorously shaken for 30 minutes prior to treatment. Cells were treated with 30μM cisplatin for a time course where samples were collected at 1, 2, 4, and 8 hours post-treatment. For analysis, cells were washed twice with phosphate-buffered saline (PBS) and collected using the non-enzymatic cell dissociation solution Cellstripper (Corning™). Cells were centrifuged at 500×g for 10 minutes. The supernatant was discarded, and the cells were resuspended in 1 mL PBS, filtered through a 70μm nylon mesh, and quantitated by hemocytometer counting. Cells were diluted in PBS to a final concentration of 100,000 cells/mL and kept on ice until injection.
(§2) Analyses were performed with PerkinElmer's NexION® ICP-MS using the Syngistix™ Single Cell Application Software Module for data collection and processing. Instrumental conditions were as follows: sample uptake rate 0.04 mL/minute, 2.0 mm id quartz injector, 1600 Watts RF power, 0.36 L/minute nebulizer gas flow rate, 0.7 L/minute makeup gas flow rate, and a 60 second sample analysis time. A Meinhard HEN nebulizer and the spray chamber of FIG. 2 were also used (though the spray chambers of FIGS. 3, 4 and 5A-5D could be used instead). The Single Cell Sample Introduction Kit (Part No. N8150031) was used for sample introduction to the NexION. The kit consists of a high-efficiency nebulizer (Part No. N8142046) and the spray chamber designed for transport of cells to the plasma. Cells (1-100 microns) are larger than droplets which typically pass through conventional spray chambers (less than 2 microns).
(§3) Ionic platinum standards were prepared in PBS to matrix match the cell sample. A standard curve was generated using 1, 2, and 3 ppb platinum standard. Transport efficiency was determined using […] gold nanoparticles in PBS.
(§4) The cells chosen for this study are the ovarian cancer cell lines A2780 and A2780/CP70, which are good models for developing the single cell method since the molecular mechanism for resistance […]. A2780 is a cisplatin-sensitive cell line, while the A2780/CP70 line is cisplatin resistant. This resistance was developed by exposing the A2780 parental cell line to increasing doses of cisplatin. The A2780/CP70 cells developed resistance by reducing cisplatin uptake in addition to up-regulating DNA repair. We explored cisplatin uptake by performing a time course experiment to analyze how the distribution of cisplatin uptake changed over time within the cellular population. Both cell lines were treated for 1, 2, 4, and 8 hours with 30μM cisplatin. […] After the data is collected, the mass distribution peak can be integrated, as shown in FIG. 30C (frequency vs mass(ag)).
(§5) The time course data was summarized by fitting each histogram with a Log Normal curve. The mean intensity was determined for each time point and plotted to show the cisplatin uptake difference between A2780 and A2780/CP70 cells over time, as shown in FIG. 33.

[3] = test system: A2780 ovarian cancer cell line; experiment: Cisplatin uptake time course, single cell ICP-MS
Description: as §1, §2, §3, §4, §5

For N.N.[Cl][Pt][Cl] [cisplatin], the “Pt content within cells (cisplatin uptake)” value [1] was “increases over time”, the uptake of platinum ([2]; A2780/CP70, 30μM cisplatin, one hour of treatment) was “very little uptake of platinum” and the “effect of serum starvation on cisplatin uptake” value ([2]; A2780/CP70, serum-starved vs control cells, FIGS. 34A and 34B) was “no effect on the uptake of cisplatin”. For the same compound, the uptake of platinum ([3]; A2780, 30μM cisplatin, one hour of treatment) was “very little uptake of platinum”, the “effect of serum starvation on cisplatin uptake” value ([3]; A2780, serum-starved vs control cells, FIGS. 34A and 34B) was “no effect on the uptake of cisplatin” and the “cisplatin uptake over time (mean intensity of Log Normal fit)” value ([3]; A2780 vs A2780/CP70, 30μM cisplatin, 1-8 hours, FIG. 33) was “increased cisplatin uptake”. The “population of cells by cisplatin content, comparison of cell lines” value ([3]; A2780 vs A2780/CP70, 30μM cisplatin, eight hours) was “increased population of cells with more cisplatin than A2780/CP70”.
